# Assay results: patent US9481676B2, “Azepino[4,5-B]indoles and methods of use” (Medivation Technologies, Inc., priority 2008, dated 2016)
# Assays:
# [1] = target: T1, human recombinant adrenergic α2A receptor (Homo sapiens, UniProt P08913); test: Adrenergic alpha2A radioligand binding ([3H]MK-912); settings: compound at 1 μM; read-out: Adrenergic (1 μM) α2A, percent inhibition of specific binding
# T1 construct: expressed in transfected cells; host or cells: insect Sf9 cells
# T1 sequence (P08913 1-465): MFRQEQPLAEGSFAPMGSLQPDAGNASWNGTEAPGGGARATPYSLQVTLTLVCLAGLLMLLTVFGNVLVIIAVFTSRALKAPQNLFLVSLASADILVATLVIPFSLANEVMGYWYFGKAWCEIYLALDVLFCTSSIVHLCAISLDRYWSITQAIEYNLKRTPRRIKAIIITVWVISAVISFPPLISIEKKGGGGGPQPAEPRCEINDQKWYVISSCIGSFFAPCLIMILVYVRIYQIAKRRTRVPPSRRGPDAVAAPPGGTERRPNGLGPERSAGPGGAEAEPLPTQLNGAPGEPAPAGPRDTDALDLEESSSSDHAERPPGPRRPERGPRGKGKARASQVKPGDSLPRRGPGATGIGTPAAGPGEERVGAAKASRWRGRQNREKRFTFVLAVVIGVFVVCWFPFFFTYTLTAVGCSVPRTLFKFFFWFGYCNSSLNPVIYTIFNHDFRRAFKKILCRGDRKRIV
# Summary of the method: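 Membranes of Sf9 cells expressing human recombinant α2A receptor were incubated with compound and 1 nM [3H]MK-912 for 60 min at 25 °C in 50 mM Tris-HCl pH 7.4, 12.5 mM MgCl2, 2 mM EDTA. Nonspecific binding: 10 μM WB-4101.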
# [2] = target: T2, human recombinant histamine H2 receptor (Homo sapiens, UniProt P25021); test: Histamine H2 radioligand binding ([125I]Aminopotentidine); settings: compound at 1 μM; read-out: Histamine Binding (1 μM) H2, percent inhibition of specific binding
# T2 construct: expressed in transfected cells; host or cells: CHO-K1 cells
# Summary of the method: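 Membranes from CHO-K1 cells expressing recombinant human H2 receptor, in 50 mM phosphate buffer pH 7.4, incubated with 0.1 nM [125I]aminopotentidine for 120 min at 25 °C; nonspecific binding defined with 3 μM tiotidine.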
# [3] = target: T3, human recombinant dopamine D2L receptor (Homo sapiens, UniProt P14416); test: Dopamine D2L radioligand binding ([3H]Spiperone); settings: compound at 1 μM; read-out: Dopamine (1 μM) D2L, percent inhibition of specific binding
# T3 construct: expressed in transfected cells; host or cells: CHO cells
# Summary of the method: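 Human recombinant D2L receptor from CHO cells, in Tris-HCl buffer pH 7.4 with ascorbic acid, BSA and 150 mM NaCl; compounds at 1 μM or lower (1% DMSO) incubated with 0.16 nM [3H]spiperone, 120 min, 25° C. Nonspecific binding by 10 μM haloperidol; filter counting; % inhibition of specific binding.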
# [4] = target: T4, human recombinant serotonin (5-Hydroxytryptamine) 5-HT2C receptor (Homo sapiens, UniProt P28335); test: Serotonin 5-HT2C radioligand binding ([3H]Mesulergine); settings: compound at 1 μM; read-out: Serotonin (1 μM) 5-HT2C, percent inhibition of specific binding
# T4 construct: expressed in transfected cells; host or cells: CHO-K1 cells
# T4 sequence (P28335 33-458): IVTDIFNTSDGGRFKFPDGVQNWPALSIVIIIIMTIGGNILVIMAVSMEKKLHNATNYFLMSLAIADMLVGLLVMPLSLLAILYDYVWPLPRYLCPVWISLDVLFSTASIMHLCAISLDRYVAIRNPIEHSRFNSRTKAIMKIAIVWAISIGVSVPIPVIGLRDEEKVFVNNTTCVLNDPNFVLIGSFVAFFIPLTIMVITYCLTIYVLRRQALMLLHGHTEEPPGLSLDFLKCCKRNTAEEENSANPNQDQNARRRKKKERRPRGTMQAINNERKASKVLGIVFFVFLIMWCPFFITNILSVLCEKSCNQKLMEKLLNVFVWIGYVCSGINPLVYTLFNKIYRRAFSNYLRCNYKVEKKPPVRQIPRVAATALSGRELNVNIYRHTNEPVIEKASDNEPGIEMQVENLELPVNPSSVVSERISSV
# Summary of the method: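 Membranes from CHO-K1 cells expressing human 5-HT2C, incubated with 1 nM [3H]mesulergine for 60 min at 25 °C in 50 mM Tris-HCl pH 7.4 with ascorbic acid and pargyline.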
# T2 sequence (P25021 whole entry): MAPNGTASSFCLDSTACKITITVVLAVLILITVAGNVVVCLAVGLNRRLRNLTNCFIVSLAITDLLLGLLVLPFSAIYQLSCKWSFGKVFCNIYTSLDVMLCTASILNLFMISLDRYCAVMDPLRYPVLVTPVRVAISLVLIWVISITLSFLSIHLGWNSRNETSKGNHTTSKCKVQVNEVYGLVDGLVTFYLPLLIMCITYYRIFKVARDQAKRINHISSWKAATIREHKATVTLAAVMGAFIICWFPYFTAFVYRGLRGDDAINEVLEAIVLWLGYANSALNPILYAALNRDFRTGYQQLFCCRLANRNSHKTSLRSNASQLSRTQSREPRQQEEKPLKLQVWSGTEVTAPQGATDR
# T3 sequence (P14416 whole entry): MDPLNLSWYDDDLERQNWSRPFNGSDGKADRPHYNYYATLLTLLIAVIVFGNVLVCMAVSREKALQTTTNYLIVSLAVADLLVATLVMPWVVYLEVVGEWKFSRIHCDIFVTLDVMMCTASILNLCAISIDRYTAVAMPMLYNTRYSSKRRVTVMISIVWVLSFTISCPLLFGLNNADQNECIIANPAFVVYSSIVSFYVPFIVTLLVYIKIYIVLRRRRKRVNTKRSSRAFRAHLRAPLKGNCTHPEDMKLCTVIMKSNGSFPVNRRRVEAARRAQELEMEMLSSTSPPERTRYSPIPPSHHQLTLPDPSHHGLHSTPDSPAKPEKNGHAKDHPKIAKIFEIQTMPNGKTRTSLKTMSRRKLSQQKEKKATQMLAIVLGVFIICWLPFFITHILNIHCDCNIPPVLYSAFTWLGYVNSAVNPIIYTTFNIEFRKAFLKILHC
Structure (SMILES),inhibition at 1 µM [1] [%],inhibition at 1 µM [2] [%],inhibition at 1 µM [3] [%],inhibition at 1 µM [4] [%]
"CN1CCc2c(n(CC(O)c3ccc(F)cc3)c3ccc(Cl)cc23)CC1 (centres unmarked) [Compound No. 51, 2-(9-chloro-2,3,4,5-tetrahydro-3-methylazepino[4,5-b]indol-6(1H)-yl)-1-(4-fluorophenyl) ethanol]",98,70,30,98
"Cc1ccc2c(c1)c1c(n2CC(O)c2ccncc2)CCN(C)CC1 (centres unmarked) [Compound No. 43, 2-(2,3,4,5-tetrahydro-3,9-dimethylazepino[4,5-b]indol-6(1H)-yl)-1-(pyridin-4-yl)ethanol]",78,30,4,91
"CN1CCc2c(n(CC(=O)N3CCNCC3)c3ccc(Cl)cc23)CC1 [Compound No. 72, 2-(9-chloro-2,3,4,5-tetrahydro-3-methylazepino[4,5-b]indol-6(1H)-yl)-1-(piperazin-1-yl)ethanone]",-6,0,-18,53
"CN1CCc2c(n(CC(=O)N(C)C3CCCCC3)c3ccc(Cl)cc23)CC1 [Compound No. 74, 2-(9-chloro-2,3,4,5-tetrahydro-3-methylazepino[4,5-b]indol-6(1H)-yl)-N-cyclohexyl-N-methylacetamide]",19,9,-2,1
"Cc1ccc2c(c1)c1c(n2CC(=O)NC(C)C)CCN(C)CC1 [Compound No. 54, 2-(2,3,4,5-tetrahydro-3,9-dimethylazepino[4,5-b]indol-6(1H)-yl)-N-isopropylacetamide]",5,-3,6,-2
"COc1ccc(C(O)Cn2c3c(c4cc(Cl)ccc42)CCN(C)CC3)cc1 (centres unmarked) [Compound No. 47, 2-(9-chloro-2,3,4,5-tetrahydro-3-methylazepino[4,5-b]indol-6(1H)-yl)-1-(4-methoxyphenyl)ethanol]",97,70,45,98
"CN1CCc2c(n(CC(=O)OCc3ccccc3)c3ccc(Cl)cc23)CC1 [Compound No. 75, Benzyl-2-(9-chloro-2,3,4,5-tetrahydro-3-methylazepino[4,5-b]indol-6(1H)-yl)acetate]",7,-4,2,13
"CN1CCc2c(n(CC(O)c3ccccc3F)c3ccc(Cl)cc23)CC1 (centres unmarked) [Compound No. 40, 2-(9-chloro-2,3,4,5-tetrahydro-3-methylazepino[4,5-b]indol-6(1H)-yl)-1-(2-fluorophenyl)ethanol]",96,61,46,97
"C/C(=C\n1c2c(c3cc(C)ccc31)CCN(C)CC2)c1ccc(F)cc1 [Compound No. 34, 6-((E)-2-(4-fluorophenyl)prop-1-enyl)-1,2,3,4,5,6-hexahydro-3,9-dimethylazepino[4,5-b]indole]",94,103,90,97
"Cc1ccc(C(O)Cn2c3c(c4cc(Cl)ccc42)CCN(C)CC3)cn1 (centres unmarked) [Compound No. 7, 2-(9-chloro-2,3,4,5-tetrahydro-3-methylazepino[4,5-b]indol-6(1H)-yl)-1-(6-methylpyridin-3-yl)ethanol]",84,52,15,64
"CN1CCc2c(n(CCc3ccccc3)c3ccc(Cl)cc23)CC1 [Compound No. 56, 9-chloro-1,2,3,4,5,6-hexahydro-3-methyl-6-phenethylazepino[4,5-b]indole]",95,74,62,95
"CN1CCc2c(n(CCc3ccccn3)c3ccc(Cl)cc23)CC1 [Compound No. 8, 9-chloro-1,2,3,4,5,6-hexahydro-3-methyl-6-(2-(pyridin-2-yl)ethyl)azepino[4,5-b]indole]",95,68,42,95
"Cc1ccc2c(c1)c1c(n2CC(=O)Nc2ccc(F)cc2)CCN(C)CC1 [Compound No. 44, N-(4-fluorophenyl)-2-(2,3,4,5-tetrahydro-3,9-dimethylazepino[4,5-b]indol-6(1H)-yl)acetamide]",1,1,-8,41
"COc1ccc(C(O)Cn2c3c(c4cc(Cl)ccc42)CCN(C)CC3)cc1F (centres unmarked) [Compound No. 67, 2-(9-chloro-2,3,4,5-tetrahydro-3-methylazepino[4,5-b]indol-6(1H)-yl)-1-(3-fluoro-4-methoxyphenyl) ethanol]",102,72,50,93
"Cc1ccc2c(c1)c1c(n2CCc2ccccc2F)CCN(C)CC1 [Compound No. 63, 6-(2-fluorophenethyl)-1,2,3,4,5,6-hexahydro-3,9-dimethylazepino[4,5-b]indole]",96,83,61,5
"CN1CCc2c(n(CC(O)c3ccc(Cl)cc3)c3ccc(Cl)cc23)CC1 (centres unmarked) [Compound No. 16, 2-(9-chloro-2,3,4,5-tetrahydro-3-methylazepino[4,5-b]indol-6(1H)-yl)-1-(4-chlorophenyl)ethanol]",105,92,37,92
"CN1CCc2c(n(CCc3ccc(Cl)cc3)c3ccc(Cl)cc23)CC1 [Compound No. 30, 6-(4-chlorophenethyl)-9-chloro-1,2,3,4,5,6-hexahydro-3-methylazepino[4,5-b]indole]",99,97,53,98
"Cc1ccc2c(c1)c1c(n2CC(O)c2ccc(F)cc2F)CCN(C)CC1 (centres unmarked) [Compound No. 59, 1-(2,4-difluorophenyl)-2-(2,3,4,5-tetrahydro-3,9-dimethylazepino[4,5-b]indol-6(1H)-yl)ethanol]",89,37,20,-3
"CN1CCc2c(n(C#Cc3ccc(F)cc3)c3ccc(Cl)cc23)CC1 [Compound No. 281, 9-chloro-6-((4-fluorophenyl)ethynyl)-3-methyl-1,2,3,4,5,6-hexahydroazepino[4,5-b]indole]",92,76,40,98
"Cc1ccc2c(c1)c1c(n2CC(C)(O)c2ccc(Cl)cc2)CCN(C)CC1 (centres unmarked) [Compound No. 15, 2-(4-chlorophenyl)-1-(2,3,4,5-tetrahydro-3,9-dimethylazepino[4,5-b]indol-6(1H)-yl)propan-2-ol]",93,92,45,100
